Patent US20260152777A1, “METHOD FOR PRODUCING EPIGALLOCATECHIN GALLATE MONOGLUCOSIDE” (GIVAUDAN SA, priority 2022, published 2026)
“Also recorded” adds a separate entry of the source. Like-named read-outs stand apart in the source and are kept apart here.

Experiments:
melanogenesis pathway = details: 0.01% (v/v), 24 h, NHEK-NHEM co-culture, normalized to B2M
Experimental: To evaluate the impact of preparation of the present invention on melanogenesis, a co-culture study with keratinocytes and melanocytes was conducted.
The cell culture was realized with primary cells isolated from biopsies. Cells were co-cultured with a ratio of 10 keratinocytes to 1 melanocyte. Both cell types were derived from a donor.
The product EGCG MONOG 0.01% was filtered and diluted in Keratinocyte Growth Medium 2 (supplied by Promocell).
Cells were seeded in 6-well plates in the presence of the Keratinocyte Growth Medium 2 for 24 h. After seeding, a treatment in the presence of EGCG MONOG 0.01% was applied for 24 h. Untreated wells were used as a basal reference in order to compare the impact of EGCG MONOG and gene expression after 24 h of incubation.
After treatment, the RNA from the cells were extracted using TRIzol™ (available from Sigma) and reverse-transcribed into cDNA. The cDNA was mixed with different primers of interest representative of the melanogenesis pathway (PrimePCR custom plate, pigmentation, Biorad). The expression of the mRNA was measured by semi-quantitative PCR on a Bio-Rad CFX96Real Time PCR System (available from BioRAD). The expression level of the mRNA was calculated and normalized with reference gene (B2M).
The values were reported relative to the untreated control to express an activating or inhibitory effect.

[1] = system: Lactobacillus acidophilus; assay: Growth promotion of Lactobacillus acidophilus (OD600); assay type: cell-based; details: MRS broth 50% in PBS, 48 hours, anaerobic
Experimental: In order to further investigate the effect of the active of the present invention on bacteria, the growth of Lactobacillus acidophilus in MRS medium supplemented with different concentrations of EGCG MONOG was evaluated for 48 hours.
L. acidophilus (DSM 20079) was cultivated at 37° C. under anaerobic conditions on De Man, Rogosa Sharpe (MRS) agar. After bacterial amplification in culture medium, for each bacterial strain, a bacterial suspension was prepared using the assay medium (MRS broth 50% in PBS) and adjusted to an optical density at 600 nm (OD600 nm) of 0.2. The bacterial suspension was then transferred to 96-well plates, some of which contained the test compounds from 0.015% to 1%. The strain cultivated with powdered milk at 0.01% served as a positive control.
Bacterial cultures were incubated at 37° C. under agitation (˜280 rpm) and under anaerobic condition. OD600 nm were read in kinetic for 48 hours using a microplate spectrophotometer (EPOCH2, BioTek Instruments) to analyze the bacterial growth.
All experimental conditions were performed in triplicate.

[2] = Skin penetration by Raman spectroscopy (ex vivo); assay type: in vitro ADME, human
Experimental: At the end of the incubation period, the skin explants were frozen in Optimal Cutting Temperature (OCT; VWR) at −80° C. and then cut longitudinally using a cryotome with a thickness of 20 μm. For each explant, 3 tissue sections were selected and deposited on a CaF2 support for Raman imaging analysis. The processing of corrected data maps was performed by using a software based on least squares fitting method that operates in the Matlab environment. This method involves mathematical modeling of reference spectra in the overall spectral image to determine the contribution and distribution of these spectra within the image. The reference spectra were the modelled spectra of the following products: Aglycone, glucoside mixture, 4′-O-α-monoglucoside and untreated skin control.

[3] = system: spontaneous formation of Advanced Glycation End-products (AGEs); assay: Anti-glycation in tubo assay (BSA + ribose, fluorescence); assay type: biochemical; details: 17 h at 37° C.; for IC50: BSA + ribose, read-out: IC50 in well (concentration which inhibits AGEs formation by half)
Experimental: The anti-glycation effect was evaluated using an in tubo assay to measure the spontaneous formation of Advanced Glycation End-products (AGEs). This assay was conducted on a 96-wells microplate. […] The extracts were diluted in sodium phosphate buffer (0.1 M, pH 7.4). Several dilutions were tested. Each diluted extract was run in triplicate. A standard range of aminoguanidine was used as inhibitor reference (positive control). A mixture of the sodium phosphate buffer and BSA was used to validate the experiment and a mixture of sodium phosphate buffer, BSA and ribose was used as the positive control. Two blanks were carried out for the extract: • with phosphate buffer, BSA and extract • with phosphate buffer, ribose and extract The microplate was agitated and incubated for 17 h at 37° C. The fluorescence reading was performed with ? excitation 340 nm and ? emission 420 nm. The anti-glycation activity of the extract was calculated as follows: [formula] FI: Fluorescence of tested extract; blank extract (ribose or BSA); positive control; negative control. Based on the above measurements and calculation, the IC50, i.e. the concentration of the extract which inhibits AGEs formation by half, was calculated.

[4] = system: Normal Human Epidermal Keratinocytes (NHEKs); assay: Antioxidant activity: ROS production in keratinocytes stressed with TBP (DCFH-DA probe); assay type: cell-based; details: at 0.1%; TBP column = 100, Untreated = 27.5
Experimental: A 96 wells-plate was coated with a collagen I solution at 50 μg/ml. Normal Human Epidermal Keratinocytes (NHEKs) were seeded at 20′000 cells per well with four replicates. Cells were incubated for 24 hours in complete medium (Epilife, Gibco) supplemented with Human keratinocyte growth supplements (HKGS) factor (Gibco) and 1% antibiotics (Sigma) at 37° C. with 5% CO2. […] The evolution of the fluorescence was followed for 1 hour.

O=C(O[C@@H]1Cc2c(O)cc(O)cc2O[C@@H]1c1cc(O)c(O[C@H]2O[C@H](CO)[C@@H](O)[C@H](O)[C@H]2O)c(O)c1)c1cc(O)c(O)c(O)c1 [epigallocatechin gallate 4′-O-α-monoglucoside]
AP3B1 mRNA expression vs untreated co-culture (melanogenesis pathway): −59%
DTNBP1 mRNA expression vs untreated co-culture (melanogenesis pathway): −59%
EDNRB mRNA expression vs untreated co-culture (melanogenesis pathway): −68%
F2RL1 mRNA expression vs untreated co-culture (melanogenesis pathway): −49%
KIT mRNA expression vs untreated co-culture (melanogenesis pathway): −93%
LYST mRNA expression vs untreated co-culture (melanogenesis pathway): −48%
MC1R mRNA expression vs untreated co-culture (melanogenesis pathway): −96%
MITF mRNA expression vs untreated co-culture (melanogenesis pathway): −108%
PMEL mRNA expression vs untreated co-culture (melanogenesis pathway): −212%
SOX10 mRNA expression vs untreated co-culture (melanogenesis pathway): −60%
TYR mRNA expression vs untreated co-culture (melanogenesis pathway): −58%
increase of growth of Lactobacillus acidophilus vs culture without EGCG MONOG ([1]; 0.13%): 6%
increase of growth of Lactobacillus acidophilus vs culture without EGCG MONOG ([1]; 0.4%): 9%
increase of growth of Lactobacillus acidophilus vs culture without EGCG MONOG ([1]; 1%): 27%
skin penetration higher than that of the aglycone ([2]; 2%, 8 hours of topical application, skin explants, relative to aglycone): +90%
skin penetration higher than that of the glucoside mixture ([2]; 2%, 8 hours of topical application, skin explants, relative to glucoside mixture): +20%
quantity accumulated in the skin relative to the aglycone ([2]; at depth of about 65 µm): almost double that of the aglycone
bioavailability in the skin ([2]; compared to aglycone (and glucoside mixture)): better skin bioavailability than the aglycone and the glucoside mixture; also recorded: much higher bioavailability in the skin than the respective aglycones
depth of accumulation in the skin / skin penetration depth ([2]; skin explants, Raman): about 65 µm
IC50 ([3]; listed as ECGC monoglucoside): 133 µM
IC50 [3]: 118 µM
Inhibition AGE's ([3]; tested concentration 0.08 mM): 31.01%
Inhibition AGE's ([3]; tested concentration 0.4 mM): 53.22%
Inhibition AGE's ([3]; tested concentration 1 mM): 81.54%
Inhibition AGE's ([3]; tested concentration 8 mM): 109.26%
ROS, Mean (% of untreated) [4]: 33.75 % of untreated
